Measured values: PMC5078989, “Targeted inhibition of the COP9 signalosome for treatment of cancer” (Nature Communications, 2016)

Test system: panel of cancer cell lines
Experiment: Cell viability (CellTiter-Glo) dose-response across cancer cell line panel;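 as to EC50: after 72 h compound incubation with CellTiter-Glo ATP readout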
Assay type: cell-based, human
Conditions: for EC50: Homo sapiens
From the text: Next, we explored the effect of CSN5 inhibition on the viability of cancer cells. To obtain a comprehensive picture, we generated dose–response curves with a CSN5 inhibitor across more than 500 cancer cell lines in a previously described standardized setting[47] (Supplementary Data 1).
A standardized CellTiter-Glo Assay (Promega #G7570) based on the quantification of ATP was applied according to the manufacturer's protocol to measure the amount of viable cells in culture. In brief, cells were seeded into 384-well plates at optimal density for each cell line. After 4 h, compounds were added at different concentrations in growth medium and incubated for another 72 h in a humidifying chamber at 37 °C and 5% CO2. […] EC50 values were calculated from the plot of percentage of inhibition versus inhibitor concentration using the nonlinear regression analysis software Origin 7.5SR6 (OriginLab Corp.).

SMILES: CC(C)C[C@H](NC(=O)[C@H](Cc1ccccc1)NC(=O)c1cnccn1)B(O)O [Bortezomib]
- AMAX (22Rv1): -94.313
- AMAX (59M): -95.8554
- AMAX (769-P): -95.8011
- AMAX (786-O): -95.6334
- AMAX (A4/Fuk): -96.8168
- AMAX (A101D): -96.1689
- AMAX (BV-173): -96.2276
- AMAX (CAL-54): -95.8702
- AMAX (CAL-78): -96.6244
- AMAX (CAS-1): -94.9696
- AMAX (CMK-11-5): -95.7224
- AMAX (CML-T1): -97.037
- AMAX (COLO 668): -97.3658
- AMAX (COR-L88): -87.7017
- AMAX (COR-L279): -96.4332
- AMAX (COV318): -92.9911
- AMAX (COV504): -89.7599
- AMAX (DK-MG): -95.0625
- AMAX (DMS 273): -96.4842
- AMAX (DOHH-2): -97.4407
- AMAX (EM-2): -96.8249
- AMAX (GCIY): -97.1531
- AMAX (GR-M): -97.3342
- AMAX (HEC-6): -96.6882
- AMAX (HEC-50B): -86.5583
- AMAX (HEC-151): -96.6048
- AMAX (HEC-265): -95.5903
- AMAX (HGC-27): -96.7322
- AMAX (HLC-1): -96.4119
- AMAX (HMC-1-8): -96.1255
- AMAX (HTK-): -96.3221
- EC50 (8-MG-BA, cell line 8-MG-BA): 18.9 nM
- EC50 (22Rv1, 22Rv1): 14.7 nM
- EC50 (59M): 13.5 nM
- EC50 697: 9 nM
- EC50 (769-P): 8.84 nM
- EC50 (786-0, 786-O): 8.79 nM
- EC50 (1321-N1, 1321N1): 12 nM
- EC50 (8305C): 7.18 nM
- EC50 (23132/87): 7.39 nM
- EC50 (A4/Fuk): 2.23 nM
- EC50 (A101D): 3.29 nM
- EC50 (A 172, A172): 8.05 nM
- EC50 (A204, A-204): 5.28 nM
- EC50 (A253, A-253): 9.94 nM
- EC50 (A549, A549): 30.8 nM
- EC50 (A673, A-673): 5.83 nM
- EC50 (A2058, A2058): 19.4 nM
- EC50 (A2780, A2780): 10.7 nM
- EC50 (A-375, A-375): 12.1 nM
- EC50 (ABC-1, ABC-1): 3.02 nM
- EC50 (ACC-MESO-1, ACC-MESO-1): 23.6 nM
- EC50 (ACHN): 7.43 nM
- EC50 (AMO1, AMO-1): 2.18 nM
- EC50 (AN3-CA, cell line AN3 CA): 15.5 nM
- EC50 (AU565, AU565): 6.2 nM
- EC50 (BFTC-909, BFTC-909): 20.9 nM
- EC50 (BHY): 7.83 nM
- EC50 (BICR 6): 18.4 nM
- EC50 (BICR 16): 38.8 nM
- EC50 (BICR 22): 12.3 nM
- EC50 (BL-41, BL-41): 1.54 nM
- EC50 (BT-20, BT-20): 26.8 nM
- EC50 (BT-549, BT-549): 5.76 nM
- EC50 (BV-173, BV-173): 8.13 nM
- EC50 (BXPC-3, BxPC-3): 15.1 nM
- EC50 (C32, C32): 13 nM
- EC50 (CAKI-1, Caki-1): 12 nM
- EC50 (CAKI-2, cell line Caki-2): 22.8 nM
- EC50 (CAL-29): 16.3 nM
- EC50 (CAL-51, CAL-51): 17.9 nM
- EC50 (CAL-54, CAL-54): 9.06 nM
- EC50 (CAL-78): 7.82 nM
- EC50 (CAL-120, CAL-120): 7.23 nM
- EC50 (CAMA-1, CAMA-1): 8.61 nM
- EC50 (CAPAN-1, Capan-1): 9.26 nM
- EC50 (CAS-1): 16.6 nM
- EC50 (CCK-81): 9.52 nM
- EC50 (CCRF-CEM): 3.12 nM
- EC50 (CFPAC-1, CFPAC-1): 6.34 nM
- EC50 (CHL-1, CHL-1): 9.51 nM
- EC50 (CHP-212, cell line CHP-212): 5.04 nM
- EC50 (CMK): 3.98 nM
- EC50 (CMK-11-5, CMK-11-5): 6.27 nM
- EC50 (CML-T1, CML-T1): 3.65 nM
- EC50 (COLO 205, COLO 205): 35.7 nM
- EC50 (COLO 320, COLO-320): 19 nM
- EC50 (COLO 699, COLO-699): 9.17 nM
- EC50 (COLO 704, COLO-704): 5.98 nM
- EC50 (COLO 775): 5.24 nM
- EC50 (COLO 792): 5.11 nM
- EC50 (COLO-668, COLO 668): 13.2 nM
- EC50 (COLO-680N): 12.3 nM
- EC50 (COLO-741, COLO 741): 11 nM
- EC50 (COLO-800, cell line COLO-800): 10.1 nM
- EC50 (COLO-829, COLO 829): 16.6 nM
- EC50 (COR-L23, cell line COR-L23): 17.8 nM
- EC50 (COR-L47, COR-L47): 9.05 nM
- EC50 (COR-L88, COR-L88): 29.3 nM
- EC50 (COR-L279, COR-L279): 7.34 nM
- EC50 (COV318, COV318): 6.86 nM
- EC50 (COV504, COV504): 7.72 nM
- EC50 (COV644): 6.9 nM
- EC50 (Calu-1, Calu-1): 17.6 nM
- EC50 (Calu-3, Calu-3): 4.34 nM
- EC50 (Calu-6, Calu-6): 17.8 nM
- EC50 (Caov-3, Caov-3): 7.49 nM
- EC50 (Ci-1, CI-1): 4.61 nM
- EC50 (DAN-G): 8.14 nM
- EC50 (DB): 3.38 nM
- EC50 (DBTRG-05MG, cell line DBTRG-05MG): 34.7 nM
- EC50 (DK-MG): 5.7 nM
- EC50 (DLD-1, DLD-1): 6.51 nM
- EC50 (DMS-79, cell line DMS 79): 13.6 nM
- EC50 (DMS-114, DMS 114): 14 nM
- EC50 (DMS-273, DMS 273): 6.64 nM
- EC50 (DOHH-2, DOHH-2): 4.61 nM
- EC50 (DU-145, DU 145): 17.5 nM
- EC50 (DU-4475, DU4475): 5.05 nM
- EC50 (DV-90, DV-90): 22.4 nM
- EC50 (Daoy): 6.56 nM
- EC50 (Detroit 562, cell line Detroit 562): 11.4 nM
- EC50 (EBC-1, EBC-1): 8.25 nM
- EC50 (EFM-19, EFM-19): 22.5 nM
- EC50 (EFM-192A): 25.5 nM
- EC50 (EM-2, EM-2): 1.63 nM
- EC50 (EN): 15 nM
- EC50 (EOL1, EOL-1): 6.8 nM
- EC50 (ES-2, ES-2): 10.4 nM
- EC50 (ESS-1, ESS-1): 8.62 nM
- EC50 (FU-OV-1): 12.5 nM
- EC50 (FaDu, cell line FaDu): 16.5 nM
- EC50 (G-361, G-361): 2.83 nM
- EC50 (G-401, G-401): 8.69 nM
- EC50 (G-402, G-402): 5.03 nM
- EC50 (GA-10, cell line GA-10): 15.5 nM
- EC50 (GAMG, cell line GAMG): 17.7 nM
- EC50 (GCIY): 6.77 nM
- EC50 (GMS-10, cell line GMS-10): 11.2 nM
- EC50 (GOS-3): 6.46 nM
- EC50 (GP2d): 14.7 nM
- EC50 (GR-M): 7.08 nM
- EC50 (Granta-519, GRANTA-519): 3.79 nM
- EC50 (HARA): 11.9 nM
- EC50 (HCC15, HCC-15): 23.1 nM
- EC50 (HCC38, HCC38): 3.99 nM
- EC50 (HCC44, HCC-44): 19.7 nM
- EC50 (HCC70, HCC70): 7.14 nM
- EC50 (HCC95, HCC-95): 14.1 nM
- EC50 (HCC366, HCC-366): 11.1 nM
- EC50 (HCC827, HCC827): 8.42 nM
- EC50 (HCC1143, HCC1143): 15.1 nM
- EC50 (HCC1171, HCC-1171): 27.1 nM
- EC50 (HCC1187, HCC1187): 6.22 nM
- EC50 (HCC1395, HCC1395): 17.5 nM
- EC50 (HCC1419, HCC1419): 28.6 nM
- EC50 (HCC1428, HCC1428): 396 nM
